This series concerns Mäusen. Kind of series: Acute oral toxicity in mice (orienting). The class given is in vivo. The settings on record: 2 000 mg/kg by gavage, group of 10, observation 14 days. The protocol:
Die akute Toxizität wurde orientierend an Gruppen von 10 Mäusen (5 weibliche und 5 männliche Mäuse; Beobachtungszeit: 14 Tage) nach Gabe einer Dosis von 2 000 mg/kg pro Tier in Methylcellulose-Suspension per Schlundsonde bestimmt: […]

Structures are written as SMILES.

On to `O=C(O)c1cc(Cl)ccc1N1CCC2(CC1)OCCO2` [Substanz A, 5-Chlor-2-(1,4-dioxa-8-aza-spiroL4,6/decan-8-yl)-benzoe-säure], for which the Tieren gestorben stood at 0 von 10.

Values taken from patent EP0063826A2, “2-Amino-benzoic-acid derivatives, their preparation and their use as medicines or intermediates” (Dr. Karl Thomae GmbH, priority 1980, dated 1981).
